{"source": "paper PMC12217474", "about": "(Antimicrobial Agents and Chemotherapy, 2025)", "key": {"[1]": {"settings": "for ELF AUC0-24 / Plasma AUC0-24: steady state, healthy subjects, Study I6424-108a, N = 20", "source_text": "By fixing the plasma PK parameters to the individual post hoc values, it was possible to predict ELF concentrations using a biophase model with unidirectional first-order transfer from the central compartment to ELF (k13) and first-order elimination from the ELF compartment (k30). In order to allow for the estimation of IIV in k30, since only one ELF measurement was collected per subject, the residual variability of ELF data was fixed to be equal to that previously estimated for the plasma PK data in healthy subjects from Phases 1 and 4 studies. […] In this simulation, the parameter estimates from the modified final population PK model were utilized along with the mean (standard deviation) of the subject covariate effects in the model, such as age and body weight from healthy subjects in Study I6424-108a."}, "[2]": {"test": "clinical", "settings": "human, iv, 10 mg/kg; for Kp uu: epithelial lining fluid (ELF) / plasma; for Kp: epithelial lining fluid (ELF) versus total-drug plasma, ELF penetration ratio (total drug)"}, "[3]": {"settings": "cited from earlier work"}, "[4]": {"settings": "final population PK model, final estimate"}}, "note": "Read-outs that look alike come from different tables or passages of the source."}
{"compound": "CCCCCCCCCCNCCN[C@@]1(C)C[C@H](O[C@H]2[C@H](Oc3c4cc5cc3Oc3ccc(cc3Cl)[C@@H](O)[C@@H](NC(=O)[C@@H](CC(C)C)NC)C(=O)N[C@@H](CC(N)=O)C(=O)N[C@H]5C(=O)N[C@H]3C(=O)N[C@H](C(=O)N[C@H](C(=O)O)c5cc(O)c(CNCP(=O)(O)O)c(O)c5-c5cc3ccc5O)[C@H](O)c3ccc(c(Cl)c3)O4)O[C@H](CO)[C@@H](O)[C@@H]2O)O[C@@H](C)[C@H]1O", "note": "[telavancin]", "values": [{"measurement": "CLDL (dialysis clearance)", "setting": "bootstrap (N = 200), mean", "value": 1.79, "unit": "L/h"}, {"measurement": "CLR, max (maximum renal clearance)", "setting": "bootstrap (N = 200), mean", "value": 1.04, "unit": "L/h"}, {"measurement": "CLd coefficient (distributional clearance between central and peripheral compartments)", "setting": "bootstrap (N = 200), mean", "value": 3.78, "unit": "L/h"}, {"measurement": "Vc-TBW power", "setting": "bootstrap (N = 200), mean", "value": 0.438}, {"measurement": "Vc-age power", "setting": "bootstrap (N = 200), mean", "value": 0.184}, {"measurement": "Vc-increase for CKD5 subjects after >48 hours has elapsed between IHD sessions", "setting": "bootstrap (N = 200), mean", "value": 1.57, "unit": "L"}, {"measurement": "Vc-proportional increase for bacteremia/HABP/VABP patients", "setting": "bootstrap (N = 200), mean", "value": 0.600}, {"measurement": "Vc-proportional increase for cSSSI patients", "setting": "bootstrap (N = 200), mean", "value": 0.299}, {"measurement": "Vc-proportional increase for females", "setting": "bootstrap (N = 200), mean", "value": "−0.0583"}, {"measurement": "Vp-BMI power", "setting": "bootstrap (N = 200), mean", "value": "−0.325"}, {"measurement": "Vp-TBW power", "setting": "bootstrap (N = 200), mean", "value": 0.971}, {"measurement": "Vp-age power", "setting": "bootstrap (N = 200), mean", "value": 0.289}, {"measurement": "Vp-proportional increase for bacteremia/HABP/VABP patients", "setting": "bootstrap (N = 200), mean", "value": 0.288}, {"measurement": "Vp-proportional increase for cSSSI patients", "setting": "bootstrap (N = 200), mean", "value": 0.127}, {"measurement": "CLDL (dialysis clearance)", "setting": "bootstrap (N = 200), median", "value": 1.77, "unit": "L/h"}, {"measurement": "CLR, max (maximum renal clearance)", "setting": "bootstrap (N = 200), median", "value": 1.04, "unit": "L/h"}, {"measurement": "CLd coefficient (distributional clearance between central and peripheral compartments)", "setting": "bootstrap (N = 200), median", "value": 3.75, "unit": "L/h"}, {"measurement": "Vc-TBW power", "setting": "bootstrap (N = 200), median", "value": 0.442}, {"measurement": "Vc-age power", "setting": "bootstrap (N = 200), median", "value": 0.183}, {"measurement": "Vc-increase for CKD5 subjects after >48 hours has elapsed between IHD sessions", "setting": "bootstrap (N = 200), median", "value": 1.56, "unit": "L"}, {"measurement": "Vc-proportional increase for bacteremia/HABP/VABP patients", "setting": "bootstrap (N = 200), median", "value": 0.599}, {"measurement": "Vc-proportional increase for cSSSI patients", "setting": "bootstrap (N = 200), median", "value": 0.300}, {"measurement": "Vc-proportional increase for females", "setting": "bootstrap (N = 200), median", "value": "−0.0577"}, {"measurement": "Vp-BMI power", "setting": "bootstrap (N = 200), median", "value": "−0.317"}, {"measurement": "Vp-TBW power", "setting": "bootstrap (N = 200), median", "value": 0.969}, {"measurement": "Vp-age power", "setting": "bootstrap (N = 200), median", "value": 0.289}, {"measurement": "Vp-proportional increase for bacteremia/HABP/VABP patients", "setting": "bootstrap (N = 200), median", "value": 0.295}, {"measurement": "Vp-proportional increase for cSSSI patients", "setting": "bootstrap (N = 200), median", "value": 0.125}, {"measurement": "CLNR (non-renal clearance)", "setting": "bootstrap of final population PK model (N = 200), mean", "value": 0.399, "unit": "L/h"}, {"measurement": "CLNR (non-renal clearance)", "setting": "bootstrap of final population PK model (N = 200), median", "value": 0.402, "unit": "L/h"}, {"measurement": "Vc-TBW power", "setting": "[4]", "value": 0.469}, {"measurement": "Vc-age power", "setting": "[4]", "value": 0.188}, {"measurement": "Vc-proportional increase for bacteremia/HABP/VABP patients", "setting": "[4]", "value": 0.578}, {"measurement": "Vc-proportional increase for cSSSI patients", "setting": "[4]", "value": 0.313}, {"measurement": "Vc-proportional increase for females", "setting": "[4]", "value": "−0.0584"}, {"measurement": "Vp-BMI power", "setting": "[4]", "value": "−0.308"}, {"measurement": "Vp-TBW power", "setting": "[4]", "value": 0.976}, {"measurement": "Vp-age power", "setting": "[4]", "value": 0.272}, {"measurement": "Vp-proportional increase for bacteremia/HABP/VABP patients", "setting": "[4]", "value": 0.329}, {"measurement": "Vp-proportional increase for cSSSI patients", "setting": "[4]", "value": 0.118}, {"measurement": "CLR, max (maximum renal clearance)", "setting": "final population PK model, final estimate, Hill-type CLR-CLcr relationship, N = 1,205", "value": 1.04, "unit": "L/h"}, {"measurement": "CLd coefficient (distributional clearance between central and peripheral compartments)", "setting": "final population PK model, final estimate, N = 1,205", "value": 3.73, "unit": "L/h"}, {"measurement": "Vc-increase for CKD5 subjects after >48 hours has elapsed between IHD sessions", "setting": "final population PK model, final estimate, additive increase", "value": 1.55, "unit": "L"}, {"measurement": "CLDL (dialysis clearance)", "setting": "final population PK model, final estimate, during active intermittent hemodialysis, eight CKD5 subjects", "value": 1.77, "unit": "L/h"}, {"measurement": "CLNR (non-renal clearance)", "setting": "final population PK model, final estimate, plasma, IV, healthy subjects and patients, N = 1,205", "value": 0.407, "unit": "L/h"}, {"measurement": "k30 (first-order elimination from the ELF compartment)", "setting": "[1]; ELF population PK model, final estimate, 18 healthy subjects", "value": 0.154, "unit": "h⁻¹"}, {"measurement": "ELF AUC0-24", "setting": "[1]; 10 mg/kg IV q24h, urea-corrected BAL, mean (SD), SD", "value": "54.5 (16.1) mg·hour/L"}, {"measurement": "ELF AUC0-24", "setting": "[1]; 10 mg/kg IV q24h, maximum", "value": 99.0, "unit": "mg·h/L"}, {"measurement": "Plasma AUC0-24", "setting": "[1]; 10 mg/kg IV q24h, maximum", "value": 954, "unit": "mg·h/L"}, {"measurement": "ELF AUC0-24", "setting": "[1]; 10 mg/kg IV q24h, median", "value": 50.6, "unit": "mg·h/L"}, {"measurement": "Plasma AUC0-24", "setting": "[1]; 10 mg/kg IV q24h, median", "value": 757, "unit": "mg·h/L"}, {"measurement": "ELF AUC0-24", "setting": "[1]; 10 mg/kg IV q24h, minimum", "value": 38.3, "unit": "mg·h/L"}, {"measurement": "Plasma AUC0-24", "setting": "[1]; 10 mg/kg IV q24h, minimum", "value": 570, "unit": "mg·h/L"}, {"measurement": "Plasma AUC0-24", "setting": "[1]; 10 mg/kg IV q24h for 3 days, mean (SD), SD", "value": "750 (103) mg·hour/L"}, {"measurement": "Kp uu", "setting": "[2]; ELF penetration ratio (free drug), ELF AUC0-24/(0.1 total-drug plasma AUC0-24), median, N = 20", "value": 0.683}, {"measurement": "Kp uu", "setting": "[2]; SD", "value": 0.73}, {"measurement": "Kp", "setting": "[2]; ELF AUC0-24/total-drug plasma AUC0-24, healthy subjects, Study I6424-108a, mean (SD), N = 20, SD", "value": 0.073}, {"measurement": "Kp", "setting": "[2]; ELF AUC0-24/total-drug plasma AUC0-24, median, N = 20", "value": 0.0683}]}
{"compound": "dalbavancin", "values": [{"measurement": "reported ELF penetration", "setting": "[3]", "value": 36, "unit": "%"}]}
{"compound": "vancomycin", "values": [{"measurement": "ELF penetration", "setting": "[3]; healthy volunteers with outliers removed", "value": "41%–56"}]}
{"compound": "oritavancin", "values": [{"measurement": "reported ELF penetration ratio", "setting": "[3]; in vivo", "value": 459, "unit": "%"}]}
